Data as given in paper PMC11550483 (2024).

biological target: SARS2 M^pro (Severe acute respiratory syndrome coronavirus 2, UniProt P0DTD1, P3395H); assay type: biochemical, SARS-CoV-2

Row | Compound | % inhibition (20 µM) biochemical [%]
1 | Cc1ccc(/C=C/C(=O)Nc2ccccc2Br)o1 [MWAC-0001759, Cc1oc(\C=C\C(=O)Nc2ccccc2Br)cc1] | 15
2 | CCCN1C(=O)C2(c3cc(C)ccc31)N1CC3(C)CN2CC(C)(C1)C3=O (stereo not drawn) [MWAC-0001760, CCCN1C(=O)C2(N3CC4(C)CN2CC(C)(C3)C4=O)c5cc(C)ccc15] | 7
3 | CCOc1cc(S(=O)(=O)N2c3ccccc3CC2C)ccc1Cl (stereo not drawn) [MWAC-0001761, CCOc1cc(ccc1Cl)S(=O)(=O)N2C(C)Cc3ccccc23] | 8
4 | Cc1ccc2c(CC(=O)NCc3ccco3)coc2c1C [MWAC-0001762, Cc1ccc2c(CC(=O)NCc3occc3)coc2c1C] | 11
5 | O=C(CC1(O)C(=O)Nc2ccc(I)cc21)c1cccs1 (stereo not drawn) [MWAC-0001763, OC1(CC(=O)c2cccs2)C(=O)Nc3ccc(I)cc13] | 6.56
6 | N#Cc1ccccc1CN1C(=O)C(=O)c2ccccc21 [MWAC-0001764, O=C1N(Cc2ccccc2C#N)c3ccccc3C1=O] | 7
7 | NC(=O)c1ccccc1NC(=O)/C=C/C(=O)O [MWAC-0001765, NC(=O)c1ccccc1NC(=O)\C=C\C(=O)O] | 6.4
8 | O=C1NC(=S)NC(=O)C1=Cc1cccc(OS(=O)(=O)c2ccc3ccccc3c2)c1 [MWAC-0001766, O=C1NC(=S)NC(=O)C1=Cc2cccc(OS(=O)(=O)c3ccc4ccccc4c3)c2] | 15
9 | O=C(Nc1ccc(-c2cscn2)cc1)C1CCCN(Cc2ccccc2)C1 (stereo not drawn) [MWAC-0001767, O=C(Nc1ccc(cc1)c2cscn2)C3CCCN(Cc4ccccc4)C3] | 3.2
10 | CC1=CC(C)(C)N2C(=O)C(=O)c3cc(OC(=O)c4cccc(F)c4)cc1c32 [MWAC-0001768, CC1=CC(C)(C)N2C(=O)C(=O)c3cc(OC(=O)c4cccc(F)c4)cc1c23] | 2.41
11 | CCCN1C(=O)C(O)(CC(=O)c2ccccc2OC)c2cc(Br)ccc21 (stereo not drawn) [MWAC-0001769, CCCN1C(=O)C(O)(CC(=O)c2ccccc2OC)c3cc(Br)ccc13] | 2.64
12 | CC1=CC(C)(C)N2C(=O)C3(Nc4ccccc4CO3)c3cc(C)cc1c32 (stereo not drawn) [MWAC-0001770, CC1=CC(C)(C)N2C(=O)C3(Nc4ccccc4CO3)c5cc(C)cc1c25] | 0.845
13 | COc1ccc(C=O)cc1OS(=O)(=O)c1ccc(C)cc1 [MWAC-0001771, COc1ccc(C=O)cc1OS(=O)(=O)c2ccc(C)cc2] | 3.71
14 | COc1cc(C#N)ccc1OCc1ccc(Cl)cc1 [MWAC-0001772, COc1cc(ccc1OCc2ccc(Cl)cc2)C#N] | 0.301
15 | CN1C(=O)C(O)(CC(=O)c2ccco2)c2cc(Cl)ccc21 (stereo not drawn) [MWAC-0001773, CN1C(=O)C(O)(CC(=O)c2occc2)c3cc(Cl)ccc13] | 0.63
16 | CCOC(=O)c1ccc(NC(=O)CSc2nnc(-c3ccccc3OCC)o2)cc1 [MWAC-0001774, CCOC(=O)c1ccc(NC(=O)CSc2oc(nn2)c3ccccc3OCC)cc1] | 5.5
17 | Cc1cc(S(=O)(=O)NC(C)C)ccc1OCC(=O)Nc1cccc([N+](=O)[O-])c1 [MWAC-0001775, CC(C)NS(=O)(=O)c1ccc(OCC(=O)Nc2cccc(c2)[N+](=O)[O-])c(C)c1] | 3.17
18 | O=C(c1cccnc1)N1CCN(c2ccc(Cl)c(Cl)c2)CC1 [MWAC-0001776, Clc1ccc(cc1Cl)N2CCN(CC2)C(=O)c3cccnc3] | 47
19 | O=C(COc1ccccc1)Nc1scc(-c2ccccc2)c1C(=O)NCc1ccco1 [MWAC-0001777, O=C(COc1ccccc1)Nc2scc(c3ccccc3)c2C(=O)NCc4occc4] | 3.67
20 | C=CCN1C(=O)C(O)(CC(=O)c2cccc(OC)c2)c2cc(Br)ccc21 (stereo not drawn) [MWAC-0001778, COc1cccc(c1)C(=O)CC2(O)C(=O)N(CC=C)c3ccc(Br)cc23] | 2.82

Row | Compound | % inhibition (20 µM) biochemical [%]
21 | O=C(NNC(=O)C(c1ccccc1)c1ccccc1)Nc1cccc(Cl)c1 [MWAC-0001779, Clc1cccc(NC(=O)NNC(=O)C(c2ccccc2)c3ccccc3)c1] | 3
22 | O=C(C[S+]([O-])c1ccc(C(F)(F)F)cc1[N+](=O)[O-])OCc1ccccc1 (stereo not drawn) [MWAC-0001780, [O-][N+](=O)c1cc(ccc1S(=O)CC(=O)OCc2ccccc2)C(F)(F)F] | 4
23 | CCOCCCNC(=O)c1ccc(Cl)c([N+](=O)[O-])c1 [MWAC-0001781, CCOCCCNC(=O)c1ccc(Cl)c(c1)[N+](=O)[O-]] | 0
24 | CCOc1ccccc1N1CCN(C(=O)c2ccc(Cl)c([N+](=O)[O-])c2)CC1 [MWAC-0001782, CCOc1ccccc1N2CCN(CC2)C(=O)c3ccc(Cl)c(c3)[N+](=O)[O-]] | 0.51
25 | O=Cc1cc(Cl)ccc1OCC(=O)Nc1ccc(F)cc1 [MWAC-0001783, Fc1ccc(NC(=O)COc2ccc(Cl)cc2C=O)cc1] | 4
26 | CCN1C(=O)C(O)(CC(=O)c2ccco2)c2cc(Br)ccc21 (stereo not drawn) [MWAC-0001784, CCN1C(=O)C(O)(CC(=O)c2occc2)c3cc(Br)ccc13] | 3
27 | Cc1cc(Br)cc2c1N(C)C(=O)C2(O)CC(=O)c1ccc(Cl)cc1 (stereo not drawn) [MWAC-0001785, CN1C(=O)C(O)(CC(=O)c2ccc(Cl)cc2)c3cc(Br)cc(C)c13] | 4.25
28 | CCc1cc2c3c(c1)C1(C(=O)N3C(C)(C)C=C2C)C(C#N)=C(N)Oc2[nH]c(=O)[nH]c(=O)c21 (stereo not drawn) [MWAC-0001786, CCc1cc2C(=CC(C)(C)N3C(=O)C4(C(=C(N)OC5=C4C(=O)NC(=O)N5)C#N)c(c1)c23)C] | 4
29 | CCOC(=O)c1ccc(NC(=O)N2CCc3ccccc32)cc1 [MWAC-0001787, CCOC(=O)c1ccc(NC(=O)N2CCc3ccccc23)cc1] | 3.21
30 | C=CCN1C(=O)C(O)(CC(=O)c2ccc(Cl)s2)c2cc(Br)ccc21 (stereo not drawn) [MWAC-0001788, OC1(CC(=O)c2ccc(Cl)s2)C(=O)N(CC=C)c3ccc(Br)cc13] | 7.53
31 | Cc1cc(I)cnc1NC(=S)NC(=O)c1ccco1 [MWAC-0001789, Cc1cc(I)cnc1NC(=S)NC(=O)c2occc2] | 2.41
32 | Cc1ccc(COc2ccc([N+](=O)[O-])cc2C=O)cc1 [MWAC-0001790, Cc1ccc(COc2ccc(cc2C=O)[N+](=O)[O-])cc1] | 7
33 | Cc1cccc(NC(=O)COc2ccc(Br)cc2/C=N/O)c1 [MWAC-0001791, Cc1cccc(NC(=O)COc2ccc(Br)cc2\C=N\O)c1] | 0.745
34 | O=C1/C(=C/c2ccc3c(c2)OCO3)SC(=S)N1Cc1cccnc1 [MWAC-0001792, O=C1N(Cc2cccnc2)C(=S)S/C/1=C\c3ccc4OCOc4c3] | 14
35 | O=C1NC(=O)C(=Cc2cc(Br)ccc2OCc2cccc(F)c2)C(=O)N1 [MWAC-0001793, Fc1cccc(COc2ccc(Br)cc2C=C3C(=O)NC(=O)NC3=O)c1] | 4
36 | CCOc1ccccc1OCCCOc1ccccc1C=O [MWAC-0001794, CCOc1ccccc1OCCCOc2ccccc2C=O] | 2.44
37 | CCOc1ccc2nc(NC(=O)C3CC3)sc2c1 [MWAC-0001795, CCOc1ccc2nc(NC(=O)C3CC3)sc2c1] | 8
38 | CCN(CC)c1ccc(/C=N/n2c(S)nnc2-c2cccnc2)c(O)c1 [MWAC-0001796, CCN(CC)c1ccc(\C=N\n2c(S)nnc2c3cccnc3)c(O)c1] | 9
39 | O=C1CSC(=S)N1Cc1cccnc1 [MWAC-0001797, O=C1CSC(=S)N1Cc2cccnc2] | 7
